This note sets out measurements from article PMC8692581, “A specific inhibitor of ALDH1A3 regulates retinoic acid biosynthesis in glioma stem cells” (Communications Biology, 2021).

The target in assay [1] is T1, ALDH1A3 (Homo sapiens, UniProt P47895).
T1 construct: full-length, N-term 6xHis tagged
T1 sequence (P47895 1-512): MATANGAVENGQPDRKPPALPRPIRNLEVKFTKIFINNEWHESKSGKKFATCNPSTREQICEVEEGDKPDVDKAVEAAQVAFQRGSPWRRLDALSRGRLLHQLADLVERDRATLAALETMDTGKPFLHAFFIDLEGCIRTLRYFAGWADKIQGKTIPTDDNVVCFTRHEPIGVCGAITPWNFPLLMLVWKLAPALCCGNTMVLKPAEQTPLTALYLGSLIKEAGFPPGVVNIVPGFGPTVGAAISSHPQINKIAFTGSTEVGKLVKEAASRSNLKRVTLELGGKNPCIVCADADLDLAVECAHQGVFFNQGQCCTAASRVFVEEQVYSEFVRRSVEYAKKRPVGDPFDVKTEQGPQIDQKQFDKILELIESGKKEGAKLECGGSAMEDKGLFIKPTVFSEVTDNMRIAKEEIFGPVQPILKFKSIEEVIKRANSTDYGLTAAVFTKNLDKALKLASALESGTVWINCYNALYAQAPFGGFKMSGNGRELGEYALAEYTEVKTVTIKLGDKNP
Briefly: X-ray crystal structure ([…] Å), ternary with MCI-INI-3; crystals grown with […] NAD+. Type of assay: binding.

Another assay concerns the target T2, ALDH1A1 (Homo sapiens, UniProt P00352).
T2 construct: full-length, N-term 6xHis tagged
T2 sequence (P00352 1-501): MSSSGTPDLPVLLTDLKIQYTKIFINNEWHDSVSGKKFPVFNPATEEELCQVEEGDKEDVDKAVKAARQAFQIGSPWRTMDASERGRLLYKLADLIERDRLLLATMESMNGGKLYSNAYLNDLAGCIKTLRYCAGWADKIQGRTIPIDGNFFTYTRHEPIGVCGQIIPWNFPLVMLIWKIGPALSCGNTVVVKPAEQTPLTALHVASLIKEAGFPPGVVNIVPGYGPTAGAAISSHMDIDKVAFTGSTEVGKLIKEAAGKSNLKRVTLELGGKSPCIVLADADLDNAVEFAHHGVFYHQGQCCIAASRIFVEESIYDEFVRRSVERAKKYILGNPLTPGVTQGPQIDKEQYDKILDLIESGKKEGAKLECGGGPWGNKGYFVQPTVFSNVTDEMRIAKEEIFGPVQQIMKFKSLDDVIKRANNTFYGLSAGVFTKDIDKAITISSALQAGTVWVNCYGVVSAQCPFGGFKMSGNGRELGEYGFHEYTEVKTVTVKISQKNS
The experiment in a line: steady-state enzyme kinetics, NADH absorbance at […] nm ([…] activity retained at […] inhibitor). Type of assay: biochemical.

Assay [2] deals with T1, ALDH1A3. The experiment in a line: X-ray co-crystal structure ([…] Å); steady-state enzyme inhibition kinetics (IC50 […]); thermal shift MS in GSC-326 lysate. The class given is biochemical.

Regarding `NC(=O)c1ccc[n+]([C@@H]2O[C@H](COP(=O)([O-])OP(=O)(O)OC[C@H]3O[C@@H](n4cnc5c(N)ncnc54)[C@H](O)[C@@H]3O)[C@@H](O)[C@H]2O)c1` [NAD^+], the “X-ray crystal structure (2.8 Å), ternary with MCI-INI-3; crystals grown with 1 m” value on ALDH1A3 [1] is “The ligands NAD^+ and MCI-INI-3 are shown as gray and black sticks”.
Turning to `COC(=O)c1cc(-c2ccc3c(c2)OCO3)nc2cc(-c3ccccc3)nn12` [MCI-INI-3], the Ki (in general, the equilibrium dissociation constant of an inhibitor or competing ligand from its target) on ALDH1A1 stood at 78.2 ± 14.4 µM; at ALDH1A3 [2], 0.55 ± 0.11 µM.
